Laboratory results as given in patent publication EP0478631B1, “TARGETTING AGENTS” (CANCER RESEARCH CAMPAIGN TECHNOLOGY LTD., priority 1989, dated 1991).

Target: Cloudman S91
Experiment: Tyrosinase activity in vitro (release of tritiated water from 3,5-3H-tyrosine)
Type: cell-based
Conditions: molar concentration giving a response equal to half the maximum; tyrosinase activity relative to melanotropin-free control; Cloudman S91 monolayers, 24 h + further 24 h with 3,5-³H-tyrosine; read-out: EC₅₀
Protocol: Cloudman S91 were grown in monolayers to a density of approximately 25,000 cells cm⁻² in 25cm² culture flasks using 4 ml Ham's F10 medium supplemented with 10% heat inactivated foetal calf serum. The medium was replaced and 10⁻⁵ and 10⁻⁹ molar concentrations of the test or control compound added. After 24 h, medium and melantropins were renewed and 1»Ci, 3,5-³H-tyrosine included. The final specific activity of 3,5-³H-tyrosine incubation medium was 0.1 Ci/mmol.
After a further 24h, 0.2ml of the medium from each incubation were transferred to centrifuge tubes containing 1ml activated charcoal suspension (100 mg/ml in 0.1M citric acid). The tubes were vortexed and centrifuged at 700 x g for 5 min. Aliquots (0.5 ml) of each supernatant were transferred to scintillation vials and counted on a Packard Tri-Carb 300D scintillation counter. Aliquots (0.1ml) of the unextracted medium were also counted. Finally, the remaining medium was removed and the cell monolayer suspended in 1ml isotonic trypsin/EDTA. The dispersed cells were counted in a Coulter counter.
The amount of water generated from the tyrosine per 10⁵ cells was calculated and the results divided by the value obtained from the melanotropin-free control. The activities of the melanotropins were expressed as the molar concentrations required to give responses equal to half the maximum (EC₅₀) and are recorded in Table 1.

EC50 | Molecule
2.81 nM | alpha-melanocyte stimulating hormone [MSH]
0.74 nM | CCCC[C@H](NC(C)=O)C(=O)N[C@@H](CC(=O)O)C(=O)N[C@@H](Cc1c[nH]cn1)C(=O)N[C@H](Cc1ccccc1)C(=O)N[C@@H](CCCNC(=N)N)C(=O)N[C@@H](Cc1c[nH]c2ccccc12)C(=O)N[C@@H](CCCCN)C(N)=O [MSH(4-10), Ac-[Nle⁴, Asp⁵, D-Phe⁷, Lys¹⁰] α-MSH₄₋₁₀-NH₂]
